Measurements taken from paper PMC8869984, “Multifunctional Silver(I) Complexes with Metronidazole Drug Reveal Antimicrobial Properties and Antitumor Activity against Human Hepatoma and Colorectal Adenocarcinoma Cells” (Cancers, 2022).
Converted amounts (≈) assume the structure as drawn. Read-outs that look alike come from different tables or passages of the source.

Experiments:
[1] = test system: S. epidermidis ATCC 12228; experiment: micro-dilution broth method (MIC, MBC); assay type: cell-based, Staphylococcus epidermidis
[2] = test system: E. faecalis ATCC 29212; experiment: micro-dilution broth method (MIC, MBC); assay type: cell-based, Enterococcus faecalis
[3] = test system: K. pneumoniae ATCC 13883; experiment: micro-dilution broth method (MIC, MBC); assay type: cell-based, Klebsiella pneumoniae
[4] = test system: HepG2 cells; experiment: MTT assay (mitochondrial activity), 72 h exposure; assay type: cell-based, human; conditions: Homo sapiens, mean ± SD, n = 3
Protocol: (§1) The human hepatoma (HepG2) and colorectal adenocarcinoma (Caco-2) cells were purchased from the American Type Culture Collection: ATCC HB-8065 and ATCC HTB-37, respectively. These cells were cultured in Minimum Essential Medium Eagle (MEME) (ATCC). The murine fibroblasts cell line (Balb/c 3T3 clone A31) (gift from the Department of Swine Diseases of the National Veterinary Research Institute in Pulawy) was cultured in Dulbecco’s Modified Eagle Medium (DMEM) (ATCC). The media were supplemented with 10% BCS (Balb/c 3T3), 10% FBS (HepG2), 20% FBS (Caco-2), 1% L-glutamine, 1% antibiotic solution. The cells were maintained in 75 cm^2 cell culture flasks (NUNC) in a humidified incubator at 37 °C in an atmosphere of 5% CO2. The medium was refreshed every two or three days, and the cells were trypsinized by 0.25% trypsin–0.02% EDTA after reaching 70–80% confluence. Single cell suspensions were prepared and adjusted to a density of 2 × 10^5 cell/mL^−1 (HepG2), 1 × 10^5 cell/mL^−1 (Caco-2) and 5 × 10^4 cell/mL^−1 (Balb/c 3T3). The cell suspension was transferred to 96-well plates (100 µL/well) and incubated for 24 h before the exposure to the studied compounds. Stock solutions of ligands and metal complexes were prepared in sterile water and diluted with culture medium to obtain a concentration range from 0.1 to 10 µM. The final concentration of sterile water was 0.1% in the medium. […] As a negative control, cultured cells were grown in the absence of studied compounds. Each concentration was tested in six replicates in three independent experiments. Cytotoxicity was assessed after 72 h of exposure of the cells to compounds. The medium was not changed during the incubation time.
(§2) The metabolic activity of living cells was assessed by the measurement of the activity of dehydrogenases. […] The plate was shaken for 15 min at room temperature and transferred to a microplate reader Synergy HTX multi-mode reader (BioTek® Instruments Inc., Winooski, VT, USA) to measure the absorbance at 570 nm, using a blank as a reference. Cytotoxicity was expressed as a percentage of the negative control. […]

[5] = test system: C. jejunii ATCC 33291; experiment: micro-dilution broth method (MIC, MBC); assay type: cell-based, Campylobacter jejunii
[6] = test system: P. aeruginosa ATCC 9027; experiment: micro-dilution broth method (MIC, MBC); assay type: cell-based, Pseudomonas aeruginosa
[7] = test system: Balb/c 3T3 cells; experiment: TPC assay (total protein content), 72 h exposure; assay type: cell-based, murine; conditions: Mus musculus, BALB/c3T3, Balb/c 3T3, TPC, mean ± SD, n = 3
Protocol: as §1
This assay is based upon staining the total cellular protein (proliferation). […] The absorbance was measured at 595 nm in a microplate reader Synergy HTX multi-mode reader (BioTek® Instruments Inc., Winooski, VT, USA) using a blank as a reference. Cytotoxicity was expressed as a percentage of the negative control. […]

[8] = test system: C. perfringens ATCC 13124; experiment: microbe, parasite or virus in culture; assay type: cell-based, Clostridium perfringens
[9] = test system: Balb/c 3T3 cells; experiment: NRU assay (lysosomal activity), 72 h exposure; assay type: cell-based, murine; conditions: Mus musculus, BALB/c3T3, Balb/c 3T3, NRU, mean ± SD, n = 3
Protocol: as §1
This method is based on staining living cells with neutral red, which readily diffuses through the plasma membrane and accumulates in lysosomes. […] After 10 min of shaking, the absorbance of the dissolved NR was measured using a Synergy HTX multi-mode reader (BioTek® Instruments Inc., Winooski, VT, USA) at 540 nm using a blank as a reference. Cytotoxicity was expressed as a percentage of the negative control. […]

[10] = test system: Caco-2 cells; experiment: MTT assay (mitochondrial activity), 72 h exposure; assay type: cell-based, human; conditions: Homo sapiens, Caco-2, MTT, mean ± SD, n = 3
[11] = test system: Balb/c 3T3 cells; experiment: MTT assay (mitochondrial activity), 72 h exposure; assay type: cell-based, murine; conditions: Mus musculus, BALB/c3T3, Balb/c 3T3, MTT, mean ± SD, n = 3
Protocol: as §1, §2

[12] = test system: P. intermedia ATCC 25611; experiment: micro-dilution broth method (MIC, MBC); assay type: cell-based
[13] = S. epidermidis ATCC 12228, value in brackets
[14] = E. faecalis ATCC 29212, value in brackets
[15] = K. pneumoniae ATCC 13883, value in brackets
[16] = C. jejunii ATCC 33291, value in brackets
[17] = P. aeruginosa ATCC 9027, value in brackets
[18] = C. perfringens ATCC 13124, value in brackets
[19] = Clostridium perfringens, ATCC13124
[20] = P. intermedia ATCC 25611, value in brackets

Cc1ncc([N+](=O)[O-])n1CCO [MTZ, 2-Methyl-5-nitroimidazole-1-ethanol]
MBC [1, 13]: 2.93 µM/mL | MIC [1, 13]: 2.93 µM/mL | MBC ([1]; Staphylococcus epidermidis, ATCC12228, S. epidermidis ATCC 12228, read-out: MBC): 500 µg/mL (≈ 2.92 mM) | MIC ([1]; Staphylococcus epidermidis, ATCC12228, S. epidermidis ATCC 12228, read-out: MIC): 500 µg/mL (≈ 2.92 mM) | MBC [2, 14]: > 5.85 µM/mL | MIC [2, 14]: > 5.85 µM/mL | MBC ([2]; Enterococcus faecalis, ATCC29212, E. faecalis ATCC 29212, read-out: MBC): > 1000 µg/mL | MIC ([2]; Enterococcus faecalis, ATCC29212, E. faecalis ATCC 29212, read-out: MIC): > 1000 µg/mL | MBC [3, 15]: 5.85 µM/mL | MIC [3, 15]: 5.85 µM/mL | MBC ([3]; Klebsiella pneumoniae, ATCC13883, K. pneumoniae ATCC 13883, read-out: MBC): 1000 µg/mL (≈ 5.84 mM) | MIC ([3]; Klebsiella pneumoniae, ATCC13883, K. pneumoniae ATCC 13883, read-out: MIC): 1000 µg/mL (≈ 5.84 mM) | IC50 [4]: > 10 µM | MBC [5, 16]: > 5.85 µM/mL | MIC [5, 16]: 2.93 µM/mL | MBC ([5]; Campylobacter, ATCC33291, C. jejunii ATCC 33291, read-out: MBC): > 1000 µg/mL | MIC ([5]; Campylobacter, ATCC33291, C. jejunii ATCC 33291, read-out: MIC): 500 µg/mL (≈ 2.92 mM) | MBC [6, 17]: > 5.85 µM/mL | MIC [6, 17]: > 5.85 µM/mL | MBC ([6]; Pseudomonas aeruginosa, ATCC9027, P. aeruginosa ATCC 9027, read-out: MBC): > 1000 µg/mL | MIC ([6]; Pseudomonas aeruginosa, ATCC9027, P. aeruginosa ATCC 9027, read-out: MIC): > 1000 µg/mL | IC50 [7]: > 10 µM | MBC [8, 18]: 0.01 µM/mL | MIC [8, 18]: 0.01 µM/mL | MBC [8, 19]: 1.95 µg/mL (≈ 0.0114 mM) | MIC [8, 19]: 1.95 µg/mL (≈ 0.0114 mM) | IC50 [9]: > 10 µM | IC50 [10]: > 10 µM | IC50 [11]: > 10 µM | MBC [12, 20]: > 5.85 µM/mL | MIC [12, 20]: 5.85 µM/mL | MBC ([12]; Prevotella intermedia, ATCC25611, P. intermedia ATCC 25611, read-out: MBC): > 1000 µg/mL | MIC ([12]; Prevotella intermedia, ATCC25611, P. intermedia ATCC 25611, read-out: MIC): 1000 µg/mL (≈ 5.84 mM)
